± gives the expanded uncertainty stated by the source.

A word on the mass density: it is the mass of a sample divided by its volume.

A short description of the first data set: activity coefficient (dimensionless); of the first substance listed, at infinite dilution; xn = mol fraction of the nth substance listed. The note with it: 373 K; Liquid; Chromatography; x1 = 0.
As to `CCO` [ethanol] + Cn1cc[n+](C[Si](C)(C)C)c1.[Cl-], the activity coefficient came to 0.163 ± 0.029.
Same read-out and setting: in the case of `CCOC(C)=O` [ethyl acetate] + CCCCn1cc[n+](C)c1.O=S(=O)([O-])O it was 12.8 ± 0.9; in that of `CCOC(C)=O` [ethyl acetate] + Cn1cc[n+](C[Si](C)(C)C)c1.[Cl-], 6.96 ± 0.47; in that of `CO` [methanol] + Cn1cc[n+](C[Si](C)(C)C)c1.[Cl-], 0.0472.
Still for that read-out and setting: next, `C[N+](=O)[O-]` [nitromethane] + CCCCn1cc[n+](C)c1.O=S(=O)([O-])O: 0.939 ± 0.059; `C[N+](=O)[O-]` [nitromethane] + Cn1cc[n+](C[Si](C)(C)C)c1.[Cl-]: 0.527 ± 0.039.
The same measure, in the same setting: in the case of `CCCO` [propan-1-ol] + Cn1cc[n+](C[Si](C)(C)C)c1.[Cl-] it was 0.102 ± 0.03; in that of `C1CCOC1` [tetrahydrofuran] + CCCCn1cc[n+](C)c1.O=S(=O)([O-])O, 7.34 ± 0.5; in that of `C1CCOC1` [tetrahydrofuran] + Cn1cc[n+](C[Si](C)(C)C)c1.[Cl-], 4.31 ± 0.29.
Take `Cc1ccccc1` [toluene] + CCCCn1cc[n+](C)c1.O=S(=O)([O-])O: the activity coefficient came out at 11.1 ± 0.8.
Still for that read-out and setting: next, `Cc1ccccc1` [toluene] + Cn1cc[n+](C[Si](C)(C)C)c1.[Cl-]: 4.67 ± 0.32; `ClC(Cl)Cl` [trichloromethane] + Cn1cc[n+](C[Si](C)(C)C)c1.[Cl-]: 0.253 ± 0.03.

The same data set, now with this note: 393 K; Liquid; Chromatography; x1 = 0.
`COCCOC` [1,2-dimethoxyethane] + CCCCn1cc[n+](C)c1.O=S(=O)([O-])O: the activity coefficient was 10 ± 0.7.
In the case of `COCCOC` [1,2-dimethoxyethane] + Cn1cc[n+](C[Si](C)(C)C)c1.[Cl-], the activity coefficient was 3.89 ± 0.26.
Same read-out and setting: next, `C1COCCO1` [1,4-dioxane] + CCCCn1cc[n+](C)c1.O=S(=O)([O-])O: 3.8 ± 0.26; `C1COCCO1` [1,4-dioxane] + Cn1cc[n+](C[Si](C)(C)C)c1.[Cl-]: 2.16 ± 0.15.
On the same count and under the same terms, next, `CC#N` [acetonitrile] + CCCCn1cc[n+](C)c1.O=S(=O)([O-])O: 1.24 ± 0.08.
As for `CC#N` [acetonitrile] + Cn1cc[n+](C[Si](C)(C)C)c1.[Cl-], the activity coefficient was found to be 0.73 ± 0.048.
Same read-out and setting: next, `c1ccccc1` [benzene] + CCCCn1cc[n+](C)c1.O=S(=O)([O-])O: 5.49 ± 0.37; `c1ccccc1` [benzene] + Cn1cc[n+](C[Si](C)(C)C)c1.[Cl-]: 3.85 ± 0.26.
With `CCOC(C)=O` [ethyl acetate] + CCCCn1cc[n+](C)c1.O=S(=O)([O-])O, the activity coefficient is 13.8 ± 0.9.
Take `CCOC(C)=O` [ethyl acetate] + Cn1cc[n+](C[Si](C)(C)C)c1.[Cl-]: the activity coefficient came out at 8.26 ± 0.56.
On the same count and under the same terms, in the case of `C[N+](=O)[O-]` [nitromethane] + CCCCn1cc[n+](C)c1.O=S(=O)([O-])O it was 1.08 ± 0.07.
The same measure, in the same setting: in the case of `C[N+](=O)[O-]` [nitromethane] + Cn1cc[n+](C[Si](C)(C)C)c1.[Cl-] it was 0.559 ± 0.04.
Same read-out and setting: next, `C1CCOC1` [tetrahydrofuran] + CCCCn1cc[n+](C)c1.O=S(=O)([O-])O: 8.55 ± 0.58; `C1CCOC1` [tetrahydrofuran] + Cn1cc[n+](C[Si](C)(C)C)c1.[Cl-]: 4.79 ± 0.33; `Cc1ccccc1` [toluene] + CCCCn1cc[n+](C)c1.O=S(=O)([O-])O: 13 ± 0.9.
For `Cc1ccccc1` [toluene] + Cn1cc[n+](C[Si](C)(C)C)c1.[Cl-], the activity coefficient was 5.46 ± 0.37.
On the same count and under the same terms, next, `ClC(Cl)Cl` [trichloromethane] + Cn1cc[n+](C[Si](C)(C)C)c1.[Cl-]: 0.301 ± 0.031.

The same data set, now with this note: 413 K; Liquid; Chromatography; x1 = 0.
Turning to `COCCOC` [1,2-dimethoxyethane] + CCCCn1cc[n+](C)c1.O=S(=O)([O-])O, the activity coefficient was found to be 11.6 ± 0.8.
Still for that read-out and setting: in the case of `COCCOC` [1,2-dimethoxyethane] + Cn1cc[n+](C[Si](C)(C)C)c1.[Cl-] it was 3.77 ± 0.26; in that of `C1COCCO1` [1,4-dioxane] + CCCCn1cc[n+](C)c1.O=S(=O)([O-])O, 4.41 ± 0.3.
On the same count and under the same terms, next, `C1COCCO1` [1,4-dioxane] + Cn1cc[n+](C[Si](C)(C)C)c1.[Cl-]: 2.28 ± 0.16; `CC#N` [acetonitrile] + CCCCn1cc[n+](C)c1.O=S(=O)([O-])O: 1.19 ± 0.08.
On the same count and under the same terms, next, `CC#N` [acetonitrile] + Cn1cc[n+](C[Si](C)(C)C)c1.[Cl-]: 0.756 ± 0.05; `c1ccccc1` [benzene] + CCCCn1cc[n+](C)c1.O=S(=O)([O-])O: 5.69 ± 0.39.
Regarding `c1ccccc1` [benzene] + Cn1cc[n+](C[Si](C)(C)C)c1.[Cl-], the activity coefficient was 4.36 ± 0.3.
Same read-out and setting: in the case of `C[N+](=O)[O-]` [nitromethane] + CCCCn1cc[n+](C)c1.O=S(=O)([O-])O it was 1.18 ± 0.08; in that of `C[N+](=O)[O-]` [nitromethane] + Cn1cc[n+](C[Si](C)(C)C)c1.[Cl-], 0.599 ± 0.042; in that of `Cc1ccccc1` [toluene] + CCCCn1cc[n+](C)c1.O=S(=O)([O-])O, 13.9 ± 1.
The same measure, in the same setting: in the case of `Cc1ccccc1` [toluene] + Cn1cc[n+](C[Si](C)(C)C)c1.[Cl-] it was 6.21 ± 0.42.
In the case of `ClC(Cl)Cl` [trichloromethane] + Cn1cc[n+](C[Si](C)(C)C)c1.[Cl-], the activity coefficient came to 0.338 ± 0.032.

Assay in a further data set: not given
The note with it: 303 K; 101.33 kPa; Liquid; vibrating tube.
As for `CCCCn1cc[n+](C)c1.O=S(=O)([O-])O` [1-butyl-3-methylimidazolium hydrogen sulfate], the mass density was determined as 1275.9 ± 0.4 kg/m3.

The data set is the same for the next values; noted with them: 308 K; 101.33 kPa; Liquid; vibrating tube.
Turning to `CCCCn1cc[n+](C)c1.O=S(=O)([O-])O` [1-butyl-3-methylimidazolium hydrogen sulfate], the mass density was 1272.5 ± 0.4 kg/m3.

The data set is the same for the next values; noted with them: 313 K; 101.33 kPa; Liquid; vibrating tube.
Turning to `CCCCn1cc[n+](C)c1.O=S(=O)([O-])O` [1-butyl-3-methylimidazolium hydrogen sulfate], the mass density was determined as 1269 ± 0.4 kg/m3.
With `Cn1cc[n+](C[Si](C)(C)C)c1.[Cl-]` [1-methyl-3-(trimethylsilylmethyl)imidazolium chloride], the mass density is 1055.9 ± 1 kg/m3.

The same data set, now with this note: 318 K; 101.33 kPa; Liquid; vibrating tube.
`CCCCn1cc[n+](C)c1.O=S(=O)([O-])O` [1-butyl-3-methylimidazolium hydrogen sulfate]: the mass density is on record as 1266.4 ± 0.4 kg/m3.
The same measure, in the same setting: in the case of `Cn1cc[n+](C[Si](C)(C)C)c1.[Cl-]` [1-methyl-3-(trimethylsilylmethyl)imidazolium chloride] it was 1053 ± 0.9 kg/m3.

The data set is the same for the next values; noted with them: 323 K; 101.33 kPa; Liquid; vibrating tube.
As to `CCCCn1cc[n+](C)c1.O=S(=O)([O-])O` [1-butyl-3-methylimidazolium hydrogen sulfate], the mass density is 1263.4 ± 0.4 kg/m3.
Take `Cn1cc[n+](C[Si](C)(C)C)c1.[Cl-]` [1-methyl-3-(trimethylsilylmethyl)imidazolium chloride]: the mass density amounted to 1050.1 ± 0.9 kg/m3.

Still in this data set, the particulars now being: 328 K; 101.33 kPa; Liquid; vibrating tube.
`CCCCn1cc[n+](C)c1.O=S(=O)([O-])O` [1-butyl-3-methylimidazolium hydrogen sulfate]: the mass density is recorded as 1260.4 ± 0.4 kg/m3.
Still for that read-out and setting: next, `Cn1cc[n+](C[Si](C)(C)C)c1.[Cl-]` [1-methyl-3-(trimethylsilylmethyl)imidazolium chloride]: 1047.2 ± 0.9 kg/m3.

Staying with this data set, now noted: 333 K; 101.33 kPa; Liquid; vibrating tube.
As to `CCCCn1cc[n+](C)c1.O=S(=O)([O-])O` [1-butyl-3-methylimidazolium hydrogen sulfate], the mass density is 1257.4 ± 0.4 kg/m3.
The same measure, in the same setting: in the case of `Cn1cc[n+](C[Si](C)(C)C)c1.[Cl-]` [1-methyl-3-(trimethylsilylmethyl)imidazolium chloride] it was 1044.1 ± 0.9 kg/m3.

The data set is the same for the next values; noted with them: 338 K; 101.33 kPa; Liquid; vibrating tube.
As for `CCCCn1cc[n+](C)c1.O=S(=O)([O-])O` [1-butyl-3-methylimidazolium hydrogen sulfate], the mass density is 1254.5 ± 0.4 kg/m3.
Still for that read-out and setting: in the case of `Cn1cc[n+](C[Si](C)(C)C)c1.[Cl-]` [1-methyl-3-(trimethylsilylmethyl)imidazolium chloride] it was 1040.9 ± 0.9 kg/m3.

Still in this data set, the particulars now being: 343 K; 101.33 kPa; Liquid; vibrating tube.
`CCCCn1cc[n+](C)c1.O=S(=O)([O-])O` [1-butyl-3-methylimidazolium hydrogen sulfate]: the mass density stood at 1251.5 ± 0.4 kg/m3.
Still for that read-out and setting: in the case of `Cn1cc[n+](C[Si](C)(C)C)c1.[Cl-]` [1-methyl-3-(trimethylsilylmethyl)imidazolium chloride] it was 1038.1 ± 0.9 kg/m3.

Staying with this data set, now noted: 348 K; 101.33 kPa; Liquid; vibrating tube.
Consider `CCCCn1cc[n+](C)c1.O=S(=O)([O-])O` [1-butyl-3-methylimidazolium hydrogen sulfate], for which the mass density worked out at 1248.6 ± 0.4 kg/m3.
The same measure, in the same setting: in the case of `Cn1cc[n+](C[Si](C)(C)C)c1.[Cl-]` [1-methyl-3-(trimethylsilylmethyl)imidazolium chloride] it was 1035.3 ± 0.9 kg/m3.

Staying with this data set, now noted: 353 K; 101.33 kPa; Liquid; vibrating tube.
Take `CCCCn1cc[n+](C)c1.O=S(=O)([O-])O` [1-butyl-3-methylimidazolium hydrogen sulfate]: the mass density turned out to be 1245.7 ± 0.4 kg/m3.
Still for that read-out and setting: in the case of `Cn1cc[n+](C[Si](C)(C)C)c1.[Cl-]` [1-methyl-3-(trimethylsilylmethyl)imidazolium chloride] it was 1032.4 ± 0.9 kg/m3.

Still in this data set, the particulars now being: 358 K; 101.33 kPa; Liquid; vibrating tube.
As for `CCCCn1cc[n+](C)c1.O=S(=O)([O-])O` [1-butyl-3-methylimidazolium hydrogen sulfate], the mass density is on record as 1242.8 ± 0.4 kg/m3.
On the same count and under the same terms, in the case of `Cn1cc[n+](C[Si](C)(C)C)c1.[Cl-]` [1-methyl-3-(trimethylsilylmethyl)imidazolium chloride] it was 1029.6 ± 0.9 kg/m3.

Still in this data set, the particulars now being: 363 K; 101.33 kPa; Liquid; vibrating tube.
As to `CCCCn1cc[n+](C)c1.O=S(=O)([O-])O` [1-butyl-3-methylimidazolium hydrogen sulfate], the mass density worked out at 1240 ± 0.4 kg/m3.
On the same count and under the same terms, next, `Cn1cc[n+](C[Si](C)(C)C)c1.[Cl-]` [1-methyl-3-(trimethylsilylmethyl)imidazolium chloride]: 1026.8 ± 0.9 kg/m3.

These data come from the NIST ThermoML archive (doi:10.1016/j.jct.2012.08.022).
